The source of these data is ChEMBL document CHEMBL1201862, “PubChem BioAssay data set” (2004).

Among the targets are Cytochrome P450 2C9 (Homo sapiens, UniProt P11712); Cytochrome P450 2D6 (Homo sapiens, UniProt P10635); Cytochrome P450 3A4 (Homo sapiens, UniProt P08684).
The target of experiment [1] is Luciferin 4-monooxygenase (Photinus pyralis, UniProt P08659). As to the kind of experiment: inhibition of purified Photinus pyralis luciferase – biochemical, luminescence, dose response (AID 1891).
Luciferin 4-monooxygenase, sequence (P08659 whole entry): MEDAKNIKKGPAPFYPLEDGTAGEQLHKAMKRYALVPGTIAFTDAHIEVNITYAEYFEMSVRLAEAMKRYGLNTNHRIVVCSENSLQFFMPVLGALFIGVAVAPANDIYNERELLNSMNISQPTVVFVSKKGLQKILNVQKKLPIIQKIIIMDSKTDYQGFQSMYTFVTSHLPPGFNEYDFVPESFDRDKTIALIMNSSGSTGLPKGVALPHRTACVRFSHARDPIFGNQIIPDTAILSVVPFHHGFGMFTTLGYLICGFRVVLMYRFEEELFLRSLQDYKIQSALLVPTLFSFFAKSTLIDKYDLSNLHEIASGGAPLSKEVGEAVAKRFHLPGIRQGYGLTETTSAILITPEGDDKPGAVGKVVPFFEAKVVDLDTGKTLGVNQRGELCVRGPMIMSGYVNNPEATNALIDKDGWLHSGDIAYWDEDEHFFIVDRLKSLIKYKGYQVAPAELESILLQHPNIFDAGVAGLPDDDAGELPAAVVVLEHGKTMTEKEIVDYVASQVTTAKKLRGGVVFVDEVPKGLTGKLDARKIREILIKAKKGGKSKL
A short description of experiment [2]: Luminescence Cell-Based Dose Confirmation HTS to Identify Inhibitors of Platelet Dense Granule Release. [Related pubchem assays: 1663 (Primary HTS), 1678 (Summary of Project)]. Type of experiment: functional.
For experiment [3], the target named is T1, Ubiquitin-conjugating enzyme E2 N (Homo sapiens, UniProt P61088).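 Note: Dose-response confirmation in a TR-FRET assay detecting UBC13-driven polyubiquitin chain formation, inhibition measured.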
T1 sequence (P61088 whole entry): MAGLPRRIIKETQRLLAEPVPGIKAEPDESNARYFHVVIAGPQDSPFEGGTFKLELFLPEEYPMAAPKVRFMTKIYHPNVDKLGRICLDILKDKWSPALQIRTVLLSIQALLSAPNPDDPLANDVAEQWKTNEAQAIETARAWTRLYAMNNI
Type of experiment: functional.

Experiment [4] addresses T2, Replicative DNA helicase DnaB (Mycobacterium tuberculosis, UniProt P9WMR3).
T2 sequence (P9WMR3 whole entry): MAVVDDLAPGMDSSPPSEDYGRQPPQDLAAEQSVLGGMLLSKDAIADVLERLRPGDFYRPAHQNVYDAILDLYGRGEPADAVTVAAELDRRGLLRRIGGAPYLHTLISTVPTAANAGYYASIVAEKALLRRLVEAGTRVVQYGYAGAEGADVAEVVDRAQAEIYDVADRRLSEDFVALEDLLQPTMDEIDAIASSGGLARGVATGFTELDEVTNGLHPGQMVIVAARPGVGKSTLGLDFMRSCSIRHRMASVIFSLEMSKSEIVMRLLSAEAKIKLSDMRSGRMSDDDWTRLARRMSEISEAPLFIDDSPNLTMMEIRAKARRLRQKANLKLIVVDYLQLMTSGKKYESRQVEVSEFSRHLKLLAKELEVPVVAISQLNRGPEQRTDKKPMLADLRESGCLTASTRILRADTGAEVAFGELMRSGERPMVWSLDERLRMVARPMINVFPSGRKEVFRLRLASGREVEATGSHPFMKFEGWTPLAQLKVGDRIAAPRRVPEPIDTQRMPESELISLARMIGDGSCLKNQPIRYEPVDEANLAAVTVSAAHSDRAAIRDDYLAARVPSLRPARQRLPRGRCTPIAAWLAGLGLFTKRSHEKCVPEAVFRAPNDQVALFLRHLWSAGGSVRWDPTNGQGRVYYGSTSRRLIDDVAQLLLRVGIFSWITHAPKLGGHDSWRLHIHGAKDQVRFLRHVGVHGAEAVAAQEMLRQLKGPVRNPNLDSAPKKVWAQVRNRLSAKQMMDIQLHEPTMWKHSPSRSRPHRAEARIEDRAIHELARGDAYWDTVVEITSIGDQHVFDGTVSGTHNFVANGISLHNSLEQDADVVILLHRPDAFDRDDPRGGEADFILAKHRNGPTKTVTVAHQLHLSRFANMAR
Nature of the experiment: DnaB intein splicing inhibitors, dose response, biochemical, cell-free fluorescence (AID 449749). Type of experiment: functional.

In a further experiment the target is T3, Protein RecA (Mycobacterium tuberculosis, UniProt P9WHJ3).
T3 sequence (P9WHJ3 whole entry): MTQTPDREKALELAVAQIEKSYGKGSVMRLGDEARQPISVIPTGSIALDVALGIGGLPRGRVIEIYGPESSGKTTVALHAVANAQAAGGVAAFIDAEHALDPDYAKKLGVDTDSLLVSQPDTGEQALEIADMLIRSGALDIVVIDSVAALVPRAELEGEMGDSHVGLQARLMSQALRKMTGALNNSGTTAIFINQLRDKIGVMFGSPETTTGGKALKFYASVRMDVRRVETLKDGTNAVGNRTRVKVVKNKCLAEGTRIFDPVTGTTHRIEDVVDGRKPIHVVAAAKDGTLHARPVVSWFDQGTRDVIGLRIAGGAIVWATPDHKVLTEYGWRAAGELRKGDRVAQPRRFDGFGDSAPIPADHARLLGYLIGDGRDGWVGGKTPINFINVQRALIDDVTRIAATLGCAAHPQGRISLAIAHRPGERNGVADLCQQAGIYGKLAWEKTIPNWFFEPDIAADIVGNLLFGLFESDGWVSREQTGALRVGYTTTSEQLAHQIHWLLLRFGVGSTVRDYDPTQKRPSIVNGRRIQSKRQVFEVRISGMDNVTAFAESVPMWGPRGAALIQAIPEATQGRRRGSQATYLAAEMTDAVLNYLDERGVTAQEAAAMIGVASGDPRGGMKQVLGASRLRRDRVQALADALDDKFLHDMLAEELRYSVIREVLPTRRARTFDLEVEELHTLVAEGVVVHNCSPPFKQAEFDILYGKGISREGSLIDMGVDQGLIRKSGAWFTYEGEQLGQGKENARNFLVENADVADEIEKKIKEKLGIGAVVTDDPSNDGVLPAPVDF
Nature of the experiment: Fluorescence Cell-Free Homogeneous Dose Retest to Identify Inhibitors of RecA-Intein Splicing Activity. [Related pubchem assays (depositor defined):AID2097, AID2223, AID489010, AID492950]. Type of experiment: functional.

Experiment [5] deals with T4, Heat shock factor protein 1 (Mus musculus, UniProt P38532).
T4 sequence (P38532 whole entry): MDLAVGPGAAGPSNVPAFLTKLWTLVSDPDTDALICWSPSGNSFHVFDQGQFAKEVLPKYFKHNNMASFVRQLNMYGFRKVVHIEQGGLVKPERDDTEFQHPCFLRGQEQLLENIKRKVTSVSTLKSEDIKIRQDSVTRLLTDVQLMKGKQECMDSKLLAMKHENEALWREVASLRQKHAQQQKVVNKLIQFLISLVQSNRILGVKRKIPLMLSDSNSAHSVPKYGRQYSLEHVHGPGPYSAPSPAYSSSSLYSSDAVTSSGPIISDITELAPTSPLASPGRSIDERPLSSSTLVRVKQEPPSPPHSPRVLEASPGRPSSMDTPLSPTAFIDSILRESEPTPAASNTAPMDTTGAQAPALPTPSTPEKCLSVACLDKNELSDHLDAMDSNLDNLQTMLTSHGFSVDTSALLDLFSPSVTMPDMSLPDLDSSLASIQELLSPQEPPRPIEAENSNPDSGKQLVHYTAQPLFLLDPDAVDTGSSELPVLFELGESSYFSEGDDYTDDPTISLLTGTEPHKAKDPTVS
Nature of the experiment: enhancement of HSF1-driven luciferase signal – cell-based, NIH3T3, luminescence, dose retest, confirmation (AID 435004).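 Note: stress induced by proteasome inhibitor MG132 added 30 min after compound; luciferase reporter driven by HSF1 response element in NIH3T3 cells; actives raise luminescence as potentiators of the MG132 stress response.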 Type of experiment: functional.

The next experiment is described as follows: cells. Type of experiment: functional.

Calls of active or inactive are those of the source. Some results are limits rather than exact numbers.

Cytochrome P450 2D6, sequence (P10635 whole entry): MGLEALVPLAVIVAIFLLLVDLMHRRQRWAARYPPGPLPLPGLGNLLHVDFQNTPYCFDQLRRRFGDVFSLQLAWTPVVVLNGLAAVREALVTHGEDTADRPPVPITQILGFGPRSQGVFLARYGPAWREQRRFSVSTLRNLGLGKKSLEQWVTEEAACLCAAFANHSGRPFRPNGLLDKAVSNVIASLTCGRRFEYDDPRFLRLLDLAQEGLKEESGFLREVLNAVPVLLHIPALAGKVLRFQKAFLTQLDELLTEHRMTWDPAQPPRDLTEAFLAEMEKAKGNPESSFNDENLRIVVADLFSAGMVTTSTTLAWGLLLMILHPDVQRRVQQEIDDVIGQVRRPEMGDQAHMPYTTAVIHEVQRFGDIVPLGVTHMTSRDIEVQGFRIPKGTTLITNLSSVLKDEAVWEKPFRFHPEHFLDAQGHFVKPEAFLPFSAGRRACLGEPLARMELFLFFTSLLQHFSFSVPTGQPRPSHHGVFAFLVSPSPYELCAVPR
Cytochrome P450 2C9, sequence (P11712 whole entry): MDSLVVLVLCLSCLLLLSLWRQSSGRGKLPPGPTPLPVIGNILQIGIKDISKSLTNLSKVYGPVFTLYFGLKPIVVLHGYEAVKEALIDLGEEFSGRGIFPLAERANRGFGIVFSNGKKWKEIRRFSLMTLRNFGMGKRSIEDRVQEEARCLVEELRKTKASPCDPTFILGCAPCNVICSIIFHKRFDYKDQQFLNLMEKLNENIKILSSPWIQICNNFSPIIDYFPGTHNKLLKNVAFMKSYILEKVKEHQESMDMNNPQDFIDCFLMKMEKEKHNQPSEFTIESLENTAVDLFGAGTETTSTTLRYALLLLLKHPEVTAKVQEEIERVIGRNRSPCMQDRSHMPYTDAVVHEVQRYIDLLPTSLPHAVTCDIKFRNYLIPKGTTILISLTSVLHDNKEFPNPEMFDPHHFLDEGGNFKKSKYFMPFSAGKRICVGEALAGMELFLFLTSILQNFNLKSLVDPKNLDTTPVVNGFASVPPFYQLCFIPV
Cytochrome P450 3A4, sequence (P08684 whole entry): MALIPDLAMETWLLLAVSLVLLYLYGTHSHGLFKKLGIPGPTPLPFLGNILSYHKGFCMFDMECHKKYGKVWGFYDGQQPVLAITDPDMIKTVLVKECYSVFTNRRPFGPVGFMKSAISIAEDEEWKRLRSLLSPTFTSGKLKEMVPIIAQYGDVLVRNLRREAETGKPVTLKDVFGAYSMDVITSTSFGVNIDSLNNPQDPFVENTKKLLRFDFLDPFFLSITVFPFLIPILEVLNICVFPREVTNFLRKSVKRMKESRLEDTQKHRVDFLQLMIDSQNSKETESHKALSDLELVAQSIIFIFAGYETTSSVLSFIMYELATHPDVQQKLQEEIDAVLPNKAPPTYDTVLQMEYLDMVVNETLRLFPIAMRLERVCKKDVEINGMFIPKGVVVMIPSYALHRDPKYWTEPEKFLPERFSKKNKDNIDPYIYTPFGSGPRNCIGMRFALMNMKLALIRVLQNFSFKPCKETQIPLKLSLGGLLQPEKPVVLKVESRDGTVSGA

Regarding `CCCc1cc(=O)oc2c(C)c(OCC(=O)Nc3ccc(CN4CCOCC4)cc3)ccc12`, the EC50 in [1] and in [2] was > 112 µM (not active) each time.

As for `CCCC[C@@H]1CN=C(N)N1CCc1cc(C(F)(F)F)cc(C(F)(F)F)c1`, in [3], the IC50 is > 20 µM (inactive).

For the compound `COc1cc(O)ccc1C=O`, the concentration giving a half-maximal response (EC50) in experiment [1] and in experiment [2] was > 112 µM (not active) in each case.

Regarding `COc1cccc(C2CC(C(F)(F)F)n3ncc(C(=O)O)c3N2)c1` (stereo not given), the EC50 in experiment [1] and in experiment [2] was > 112 µM (not active) each time.

Consider `CCOC(=O)c1ccc(NC(=O)CCc2ccc(C)o2)cc1`, for which the EC50 in [1] and in [2] was > 112 µM (not active) in each case.

For the compound `COc1ccc(NC(=O)C2CCCN(c3nn4c(=O)cc(C)nc4s3)C2)c(OC)c1` (stereo not given), the EC50 in [1] and in experiment [2] was > 112 µM (not active) each time.

With `C[C@@H]1CC[C@H]2C(=O)O[C@H](CN=[N+]=[N-])CN2[C@@H]1c1ccc(Br)cc1`, the AC50 on Cytochrome P450 2C9 was 3.16 µM (inconclusive); on Cytochrome P450 2D6 it was 7.94 µM (inconclusive).

Take `COC(=O)C1=C(C)N(Cc2ccccc2)C(NCc2cc(OC)c(OC)c(OC)c2)=N[C@H]1CCc1ccccc1`: in experiment [3], the IC50 was > 20 µM (inactive).

With `COc1ccc(N2CCN(c3nc4c(c(=O)n(C)c(=O)n4C)n3Cc3ccccc3)CC2)cc1`, the values for the EC50 in experiment [1] and in experiment [2] were 18 µM (active) and > 112 µM (not active), respectively.

`CCN(CC)S(=O)(=O)c1ccc(N2CCN(S(=O)(=O)c3ccccc3C#N)CC2)nc1`: the AC50 in [4] was > 380 µM (inactive). At Protein RecA, the EC50 was > 380 µM (inactive).

Take `CC(=O)NC(c1cc(Cl)c2ccccc2c1O)C(C)C` (stereo not given): the IC50 in experiment [3] was > 20 µM (inactive).

As to `CCN1C(=O)c2cccc3c(S(=O)(=O)Nc4ncccc4C)ccc1c23`, the EC50 in [5] is > 260 µM (inactive).

For the compound `COc1cc(CNCC(O)c2ccccc2)ccc1OCc1ccc(Cl)nc1` (stereo not given), in experiment [5], the EC50 is > 260 µM (inactive).

Take `Cc1c(NC(=O)CSC(=S)N2CCCC2)c(=O)n(-c2ccccc2)n1C`: the EC50 in experiment [1] is > 112 µM (not active); in experiment [2], 25.5 µM (active).

Take `COC(=O)c1ccccc1NC(=S)NC(=O)c1ccc(C)cc1`: the half-maximal activity concentration (AC50) in experiment [4] was 0.452 µM (active). The EC50 on Protein RecA was 0.239 µM (active).

In the case of `O=C(OCc1ccc([N+](=O)[O-])cc1)c1ccc2ccccc2n1`, the half-inhibitory concentration (IC50) in the experiment “cells” is 18 µM (active).

Turning to `COc1ccccc1NC(=O)CSc1nc2c(sc3ccccc32)c(=O)n1CCN(C)C`, the AC50 in experiment [4] was 58.7 µM (active). Moreover, the concentration for a half-maximal effect (EC50) at Protein RecA was 12.9 µM (active).

As for `Cc1ccnc(N2C(=O)C3C4CC(C(Br)C4Br)C3C2=O)c1` (stereo not given), the AC50 at Cytochrome P450 3A4 is 25.1 µM (inconclusive); on Cytochrome P450 2C9, 17.8 µM (inconclusive).

Take `CN(Cc1cc(C(C)(C)C)cc(Br)c1O)Cc1cc(C(C)(C)C)cc(Br)c1O`: the half-maximal activity concentration (AC50) was 3.98 µM (inconclusive) on Cytochrome P450 2C9 and 2.51 µM (inconclusive) on Cytochrome P450 2D6.

As for `CCCCOc1ccc(-c2nnn(C(C)C(=O)OCC)n2)cc1` (stereo not given), the IC50 in the experiment “cells” was 2.83 µM (active).

As to `C/C=C1\COC(C(=O)NCCN2CCCC2)(C(F)(F)F)C=C1C=C1CCCCC1` (stereo not given), the IC50 in [3] is > 20 µM (inactive).

Take `COc1ccc(CNC(=O)N[C@@H](CC(C)C)C(=O)O)cc1OC`: the EC50 in experiment [1] and in [2] was > 112 µM (not active) each time.

Regarding `CCOC(=O)c1c(NC(=O)COC(=O)c2ncc(Cl)c(Cl)c2Cl)sc(C(=O)N(C)C)c1C`, the AC50 in [4] is 14.1 µM (active). Moreover, the EC50 at Protein RecA was 45.5 µM (active).

In the case of `COC(=O)/C=C/CSC1=N/C(=C/c2ccc(-n3cncn3)cc2)C(=O)N1`, the AC50 at Cytochrome P450 2C9 was 11.2 µM (inconclusive).

Take `C#CCOCCOCCOCCNc1nc(N2CCN(C(=O)[C@H]([C@@H](C)CC)n3cc([C@@H](N)CC(C)C)nn3)CC2)nc(N2CCN(C(=O)[C@H](Cc3ccc(O)cc3)n3cc([C@@H](N)C(C)CC)nn3)CC2)n1` (stereo not given in full): the IC50 in experiment [3] is > 20 µM (inactive).

As to `CCOCCCN=C(S)Nc1ccc2nc(N3CCOCC3)cc(C)c2c1`, the EC50 in [5] is > 260 µM (inactive).

With `COc1ccc(-c2cc(C(F)(F)F)nc(SCC(=O)N3CCOCC3)n2)cc1OC`, the EC50 in [1] is > 112 µM (not active); in experiment [2] it was 15.8 µM (active).

Turning to `CC1CCN(c2ccc(C=O)o2)CC1`, the EC50 in experiment [5] is > 260 µM (inactive).

For the compound `COc1[nH]nc(C(=O)Nc2cc(F)ccc2C)c1[N+](=O)[O-]`, the IC50 in the experiment “cells” is > 50 µM (active).

As for `C=CCn1c(S)nnc1C(C)NC(=O)c1ccccc1` (stereo not given), the AC50 on Cytochrome P450 2C9 is 17.8 µM (inconclusive).

Consider `O=C(CC1Oc2ccccc2NC1=O)NC1CCCC1` (stereo not given), for which the EC50 in [1] and in experiment [2] was > 112 µM (not active) each time.

Take `COc1cc(C#Cc2c(-c3cncn3C)n(C)c3ccc(Br)cc23)cc(OC)c1`: the IC50 in [3] is > 20 µM (inactive).

As for `CC(=O)Nc1ccc(OCC(O)Cn2cnc3ccccc32)cc1` (stereo not given), the AC50 on Cytochrome P450 2C9 was 0.0631 µM (inconclusive); at Cytochrome P450 2D6, 0.00562 µM (inconclusive).

Turning to `COc1ccc(C/N=C(\C#N)C2=C(O)c3ccccc3C2=O)cc1`, the IC50 in the experiment “cells” was 45.7 µM (active).

As to `O=C(N/N=C/c1ccccn1)c1ccc(NC(=O)c2ccc(F)cc2)cc1`, the EC50 in experiment [1] and in [2] was > 112 µM (not active) each time.

Regarding `Cc1cc(C(=O)N/N=C/c2ccc(OC(=O)c3ccccc3Br)cc2)[nH]n1`, in “cells”, the IC50 was 41.6 µM (active).
